The source of these data is patent publication US20050180922A1, “Block co-polymer worm micelles and methods of use therefor” (priority 2004, published 2005).

One data set has as its system microtubules. The settings on record: cited from earlier work.
Data set [1] is described as follows: Taxol loading into worm micelle core (HPLC). It counts as physicochemical. The settings on record: confirmed by HPLC. As for the experimental part: In vitro assays. Drug delivery with liposomes entails loading either hydrophilic drugs or nucleic acids into the interior of the assembly (Wagner et al., Proc. Nat'l Acad. Sci. USA 89:7934 (1992)), or hydrophobic drugs into the lipid bilayer (Wenk et al., J. Pharm. Sci. 85:228 (1996)). The worm micelles in this study were loaded with the drug taxol, one of a variety of hydrophobic drugs available for killing tumor cells. Taxol binds to, and toxically stabilizes, microtubules at 1-10 nM (Gloushankova et al., Proc. Nat'l. Acad. Sci. USA 91:8597 (1994)).

In the case of `CC(=O)O[C@H]1C(=O)[C@@]2(C)[C@H]([C@H](OC(=O)c3ccccc3)[C@]3(O)C[C@H](OC(=O)[C@H](O)[C@@H](NC(=O)c4ccccc4)c4ccccc4)C(C)=C1C3(C)C)[C@]1(OC(C)=O)CO[C@@H]1C[C@@H]2O` [taxol, paclitaxel], the “concentration that binds and toxically stabilizes microtubules” value in the data set on microtubules was 1 to 10 nM. The “taxol partition into hydrophobic core” value in data set [1] was “one molecule of taxol partitions into the hydrophobic core per ten copolymers”.
